Measured values: patent US5840936A, “Aminosterol compounds useful as inhibitors of the sodium/proton exchanger (NHE)” (priority 1995, dated 1998)
Entries after “also recorded” stand apart in the source; their conditions may differ.

Legend:
Lewis lung carcinoma = experiment: Growth inhibition in vitro, Lewis lung carcinoma; assay type: cell-based; conditions: 10 μg/ml
Description: (§1) As set forth in Table 7 below, all malignant tumors evaluated in tissue culture, endothelial cells and vascular smooth muscle cells were sensitive to inhibition. Thus, compound 1436 has application in the control of growth factor dependent proliferation of many types of tissue.

Murine B16 melanoma = experiment: Growth inhibition in vitro, B16; assay type: cell-based; conditions: 10 μg/ml
Description: as §1

[1] = system: Human microvascular endothelial cells; experiment: Growth inhibition in vitro, human microvascular endothelial cells; assay type: cell-based; conditions: 10 μg/ml
Description: as §1

[2] = system: Human colon carcinoma HT29; experiment: Growth inhibition in vitro, HT29; assay type: cell-based; conditions: 10 μg/ml
Description: as §1

[3] = system: Xenopus tadpoles, stage 59-60; conditions: 10 μg/mL
[4] = system: Human coronary artery smooth muscle cells; experiment: Growth inhibition in vitro, human coronary artery smooth muscle cells; assay type: cell-based; conditions: 10 μg/ml
Description: as §1

[5] = system: chick embryo vitelline capillaries; experiment: Chick embryo vitelline capillary regression assay; assay type: in vivo; parameters: key to Vitelline capillary regression: +: Vascular reactivity; 0: No vascular reactivity; +/-: Equivocal reactivity
How it was run: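 Compounds were applied to 3-day chick embryos in 0.1 ml of 15% Ficol 400 and PBS. Regression of vitelline capillaries was scored visually 60 minutes later.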

[6] = Effect on growth and weight gain in mice; assay type: in vivo, C57B mice; conditions: 10 mg/kg QTD i.p., after 6 doses, about 1 month
Protocol: Animals were dosed QTD (i.p.) starting on Day 1. […] Animals receiving 5 mg/kg QTD experienced about a 50% reduction in growth, compared to untreated controls, while animals receiving 1 mg/kg QTD were affected by about 10%. […] They appeared very much like hypophysectamized animals might appear.

[7] = system: human umbilical venous endothelial cells; experiment: Growth inhibition in vitro, human umbilical venous endothelial cells; assay type: cell-based; conditions: 10 μg/ml
Description: as §1

[8] = Fasting blood glucose in mice; assay type: in vivo, male CD-1 mice
Protocol: To study the effect of steroid administrator or the NHE responsible for secretion of insulin, several of the aminosterols from shark liver were administered to fasting mice. Male CD-1 mice were assigned to one of four treatment groups. Whole blood glucose was tested using glucometer (Lifescan Glucometer II and One Touch test strips). Statistical analysis was via one-way analysis of variance (ANOVA) followed by subsequent Bonferonni's t-test.

[9] = system: bovine pulmonary endothelial cells; experiment: Growth inhibition in vitro, bovine pulmonary endothelial cells; assay type: cell-based; conditions: 10 μg/ml
Description: as §1

Human melanoma WM 1617 = experiment: Growth inhibition in vitro, WM 1617; assay type: cell-based; conditions: 10 μg/ml
Description: as §1

rabbit NHE3 = rabbit NHE3 (Oryctolagus cuniculus, UniProt P26432); experiment: NHE3 inhibition, internal pH (BCECF-AM) in transfected PS120 fibroblasts; conditions: 10 μg/ml, acid preloaded
Protocol: Internal pH was measured either following acid loading or in the absence of an acid-loading challenge, with the results shown in FIGS. 1A and 1B.
Specifically, PS120 fibroblasts transfected with rabbit NHE3 were grown in supplemented Dulbecco's-modified Eagle's medium as described by Levine et al., J. Biol. Chem. 268, 1993, 25527-25535. […] For cells not acid-preloaded, the actual internal pH value was monitored as a function of time following addition of squalamine, with the results depicted in FIG. 1B.
PS120 fibroblasts transfected with rabbit NHE3 were grown and acid preloaded by exposure to 40 mM NH4 Cl as described above in conjunction with FIGS. 1A and 1B. Internal cellular pH changes expressed as the rate of pH recovery as a function of restored extracellular sodium ion concentration following exposure to 10 μg/ml of the compound were assayed with the fluorescent dye BCECF-AM as described above.

Murine L1210 leukemia = experiment: Growth inhibition in vitro, L1210; assay type: cell-based; conditions: 10 μg/ml
Description: as §1

[10] = system: Human ovarian carcinoma SKOV3; experiment: Growth inhibition in vitro, SKOV3; assay type: cell-based; conditions: 10 μg/ml
Description: as §1

[11] = system: L1210 lymphoblastic leukemia; experiment: Mouse model of L1210 leukemia; conditions: highest dose (10 mg/kg every 3 days i.p.)
Description: C57B mice were inoculated with L1210 lymphoblastic leukemia cells at an inoculum that causes leukemia in 100% of animals.

Xenopus laevis heart = experiment: Isolated frog heart, persistence of beating ex vivo; conditions: 10 μg/ml, room temperature, adrenaline 50 μg/ml; control about one hour
Protocol: To determine if compound 1436 has such utility, the following experiment was performed. The heart of a juvenile Xenopus laevis frog was dissected from the living animal. The heart was placed into a Petri dish containing Krebs-Ringer buffer with adrenaline 50 μg/ml, and examined with the naked eye. At room temperature, the heart continued beating in a coordinated fashion (atrial beat followed by ventricular beat) for about one hour. In the presence of 10 μg/ml of compound 1436, spontaneous beating persisted up to 24 hours.

[12] = system: Human colon carcinoma SW948; experiment: Growth inhibition in vitro, SW948; assay type: cell-based; conditions: 10 μg/ml
Description: as §1

[13] = Effect on arterial resistance and blood pressure; assay type: in vivo, rat
Protocol: A 200-g rat was catheterized in the right carotid artery, and the compound was introduced over a ten-second period to a total dosage of 5 mg/kg. Within 30 seconds, the mean arterial pressure had fallen from about 100 mm Hg to about 70 mm Hg, with a marked reduction in pulse pressure from about 40 mm to about 10 mm. […] If cardiac output was basically unaffected, reduction in blood pressure would have resulted principally from a reduction in system resistance.
At that time, 40 μg of noradrenaline was introduced.

[14] = system: PHA-stimulated lymphocytes; experiment: Lymphocyte viability in HIV assay; assay type: cell-based; conditions: 10080 min
Description: Results are tabulated below.

[15] = system: human coronary artery smooth muscle; experiment: Growth of human coronary artery smooth muscle in vitro; assay type: cell-based
Description: Aminosterols of the invention may also have utility in inhibiting the growth factor mediated proliferation of smooth muscle within the artery. Following coronary angioplasty, reocclusion commonly occurs, secondary to reparative proliferation of the vascular smooth muscle within the wall of the surgically manipulated blood vessel. This process generally takes place over the course of 7-10 days. To evaluate whether an agent could prevent the growth factor mediated proliferation of smooth muscle within the artery, compound 1436 was evaluated in vitro for its effect on the proliferation of human coronary artery smooth muscle. Results for compound 1436 are shown in FIG. 13, and those for squalamine are shown in FIG. 14, with FIG. 15 being a composite logarithmic plot.

[16] = system: Xenopus tadpoles, stage 59-60; experiment: Xenopus tadpole assay; conditions: 10 μg/ml
ELC = ELC MTT; assay type: cell-based; conditions: Table II; read-out: ELC MTT, Minimum Effective Concentration
B16 melanoma = experiment: Suppression of B16 melanoma growth in C57B mice; assay type: in vivo, mouse
Protocol: The growth of B16 melanoma in C57B mice is dependent upon neovascularization.
Using the growth of B16 melanoma cells in C57B mice, a recognized model for the evaluation of inhibitors of angiogenesis on the growth of cancers, the effects of subcutaneous, intraperitoneal and oral administration of squalamine were evaluated.
Animals were implanted with B16 melanoma followed by treatment with compound 1436 or 1256 administered in a combined schedule or separately. […] Thus, a combination of these two compounds achieves a theraputic benefit in tumors dependent on neovascularization that may prevent metastatic spread.

rabbit NHE3, sequence (P26432 30-832): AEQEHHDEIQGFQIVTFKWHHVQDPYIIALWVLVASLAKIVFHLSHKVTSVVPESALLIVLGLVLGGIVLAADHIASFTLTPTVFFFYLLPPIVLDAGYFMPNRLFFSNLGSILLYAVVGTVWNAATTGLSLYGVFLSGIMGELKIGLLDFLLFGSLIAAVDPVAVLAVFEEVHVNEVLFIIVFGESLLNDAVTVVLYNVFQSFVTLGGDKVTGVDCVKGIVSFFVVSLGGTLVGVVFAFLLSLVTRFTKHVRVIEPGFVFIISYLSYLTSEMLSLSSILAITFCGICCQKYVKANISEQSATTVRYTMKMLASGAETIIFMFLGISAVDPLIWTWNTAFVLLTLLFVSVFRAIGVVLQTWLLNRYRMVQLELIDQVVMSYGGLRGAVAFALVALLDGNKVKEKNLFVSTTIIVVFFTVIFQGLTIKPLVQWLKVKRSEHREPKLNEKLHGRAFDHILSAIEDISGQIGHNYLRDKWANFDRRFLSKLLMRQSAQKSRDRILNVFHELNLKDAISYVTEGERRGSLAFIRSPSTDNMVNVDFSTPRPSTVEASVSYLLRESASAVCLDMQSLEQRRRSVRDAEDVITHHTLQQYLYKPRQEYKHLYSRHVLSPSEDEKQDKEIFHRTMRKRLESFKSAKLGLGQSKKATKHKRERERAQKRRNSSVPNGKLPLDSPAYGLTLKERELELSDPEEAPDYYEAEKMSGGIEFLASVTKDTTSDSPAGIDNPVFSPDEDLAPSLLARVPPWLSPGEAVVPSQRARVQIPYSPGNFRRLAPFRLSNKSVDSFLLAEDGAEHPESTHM

Question: Which results are given for `CC(C)[C@@H](CC[C@@H](C)[C@H]1CC[C@H]2[C@@H]3[C@H](O)C[C@H]4C[C@@H](NCCCNCCCCNCCCN)CC[C@]4(C)[C@H]3CC[C@]12C)OS(=O)(=O)O` [Compound 1436]?
Answer: Inhibited in vitro: Lewis lung carcinoma (Lewis lung carcinoma): INHIBITED; Inhibited in vitro: Murine B16 melanoma (Murine B16 melanoma): INHIBITED; Inhibited in vitro: Human microvascular endothelial cells [1]: INHIBITED; Inhibited in vitro: Human colon carcinoma HT29 [2]: INHIBITED; Tadpole E (epithelial) [3]: ±; Tadpole GI (gastrointestinal) [3]: -; Tadpole M (melanocytes) [3]: +; Tadpole Mus (muscle) [3]: -; Tadpole V (vascular) [3]: +; Inhibited in vitro: Human coronary artery smooth muscle cells [4]: INHIBITED; Vitelline capillary regression ([5]; 0.001 μg applied): +/-; Vitelline capillary regression ([5]; 0.01 μg applied): +; Vitelline capillary regression ([5]; 0.1 μg applied): +; Vitelline capillary regression ([5]; 1 μg applied): +; Vitelline capillary regression ([5]; 10 μg applied): +; Effect on chick embryo vessels ([5]; 3- to 5-day chick embryo): vitelline capillary regression with about the same potency as squalamine; Growth suppression [6]: growth was almost completely inhibited; Inhibited in vitro: Human umbilical venous endothelial cells [7]: INHIBITED; Hyperglycemia ([8]; i.v., 1436 in D5W, 1437 in water): caused hyperglycemia in mice; Fasting Blood Glucose Mean ± SEM ([8]; total dose 20 mg/kg i.v. (2 × 10 mg/kg), 30 min. after 2d dose): 105 ± 8.0 mg/dL; Inhibited in vitro: Bovine pulmonary endothelial cells [9]: INHIBITED; Inhibited in vitro: Human melanoma WM 1617 (Human melanoma WM 1617): INHIBITED; Inhibition of rabbit NHE3 (rabbit NHE3): found to inhibit rabbit NHE3; also recorded: inhibitor of NHE3; Inhibited in vitro: Murine L1210 leukemia (Murine L1210 leukemia): INHIBITED; Inhibited in vitro: Human ovarian carcinoma SKOV3 [10]: INHIBITED; Survival in mice bearing L1210 leukemia [11]: significant prolongation of life; Persistence of spontaneous beating (Xenopus laevis heart): up to 24 hours; Inhibited in vitro: Human colon carcinoma SW948 [12]: INHIBITED; Reversibility of blood pressure effect ([13]; 40 μg of noradrenaline at 30 minutes): readily reversible by standard pharmacological practice; Change of effect over 30 minutes ([13]; 5 mg/kg i.v., followed for 30 minutes): without significant change; Pulse pressure after dosing ([13]; 5 mg/kg i.v., within 30 seconds, from about 40 mm): about 10 mm; Mean arterial pressure after dosing ([13]; 5 mg/kg i.v., within 30 seconds, from about 100 mm Hg): about 70 mm Hg; % Viability ([14]; 0.5 μM): 91%; % Viability ([14]; 10 μM): 95%; Lymphocyte viability ([14]; 10 μg/ml): 95%; % Viability ([14]; 20 μM): 90.1%; Concentration maintaining quiescent state without loss of viability [15]: about 11 μg/ml; Suppression of growth of human coronary artery smooth muscle ([15]; in vitro): suppress in vitro the growth of human coronary artery smooth muscle; Tadpole assay, observed effects [16]: common vascular occlusive effect; also recorded: Gradual reduction in overall activity; also recorded: Melanocytes over head and tail began to swell, first exhibiting visibly distinct nuclei, followed by rupture into fragments; also recorded: dramatic disruption of melanocytes over its head, trunk, and tail, along with depression of its nervous system; also recorded: No effects are observed on epithelial cell integrity, vascular flow, erythrocyte volume, tissue integrity, muscle fiber striation, or GI tract activity; Tadpole time to death [16]: about 2 hours; minimal effective concentration (ELC): 16.7 µg/mL; Impact on tumor volume (B16 melanoma; compound 1436 10 mg/kg/every 3 days): no significant impact on tumor volume; Tumor growth effect of single agent compared with combination (B16 melanoma; squalamine 15 mg/kg/day, compound 1436 alone in a tolerable schedule): Neither administration of squalamine at 15 mg/kg/day nor compound 1436 alone in a tolerable schedule could achieve this effect
